Measurements from patent US9849186B2, “Triblock copolymer and use therefor” (priority 2012, dated 2017).

Legend:
[1] = system: myeloperoxidase (MPO) activity; test: Carrageenan-induced arthritis model: MPO activity as marker of neutrophil infiltration; assay type: in vivo, mice; conditions: 50 μl s.c. right hind paw; 5% carrageenan 18 hours later; measured 6 hours after carrageenan
Experimental: Five mice (n=5) were used in each of 9 groups (Control, RIG, nRIG, Saline@Carr, RIG@Carr, nRIG@Carr, 4-amino-TEMPO@Carr, RNP^N@Carr, nRIG+4-amino-TEMPO@Carr).
50 μl each of nitroxide radical-containing polyion complex micelles for forming an RIG gel (RIG; molar ratio r=1:1, pH 6, 60 mg/ml), nitroxide radical-free polyion complex micelles for forming an nRIG gel (nRIG; molar ratio r=1:1, pH 6, 60 mg/ml), saline, a low-molecular-weight nitroxide radical compound solution (4-aminoTEMPO; 5.45 mg/ml), a nitroxide radical-containing polymer micelle solution (RNP^N; 60 mg/ml), and a solution of low-molecular-weight 4-aminoTEMPO physically mixed with nitroxide radical-free polyion complex micelles (n-RIG+4-aminoTEMPO; molar ratio r=1:1, pH 6, 60 mg/ml) was then injected subcutaneously into the right hind paws of mice. 18 hours later, 50 μl of 5% carrageenan buffer was injected subcutaneously into the right hind paws of the mice in the Saline@Carr, RIG@Carr, nRIG@Carr, 4-amino-TEMPO@Carr, RNP^N@Carr, and nRIG+4-aminoTEMPO@Carr groups (n=5). Nothing was administered to the Control group (n=5). […] The collected tissue of the mouse right hind paws was then homogenized, and the amount of inflammatory cytokines (TNF-α and IL-1β) and myeloperoxidase (MPO) activity as a marker of neutrophil infiltration were measured with an ELISA kit in the supernatant collected by centrifugation.

[2] = Local retention of injectable gel, imaging by L-band electron spin resonance; conditions: 70 μl s.c. into hind paw
Experimental: Three mice were used in each group. 70 μl of a solution of the nitroxide radical-containing polyion complex micelles used in Test 1 (PMNT-b-PEG-b-PMNT to PAA molar ratio r=1:1 (RIG). pH 6, 60 mg/ml) was injected subcutaneously into the left hind paws of three mice. […] Local retention of nitroxide radicals in the mouse paws was imaged by L-band electron spin resonance (ESR) using mice immediately after administration.

**Q.** Which “suppression of MPO activity caused by carrageenan” value [1] does the source give for `CC1(C)CC(N)CC(C)(C)N1[O]` [4-aminoTEMPO, 4-amino-TEMPO] here?
**A.** The value was “not significantly suppressed”.

**Q.** What about the “time after administration at which ESR signal disappeared from mouse paws” value [2] of the same compound?
**A.** The value was ≤ 30 min.
